Experimental findings from PubChem BioAssay (NCI) are described below.

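Five compound concentrations were applied to cells in 96-well plates for 48 hours; endpoints were derived by simple linear interpolation of the resulting dose-response curve. Here, GI50 denotes the concentration required for 50% inhibition of growth. Definition used: TGI = concentration required for complete inhibition of growth.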 Bounds are passed on as bounds.

What all share (assay): growth of human tumour cells (NCI), 48 h
Assay [1] deals with M19-MEL melanoma.
The test system of assay [2] is MOLT-4 leukemia.
The test system of assay [3] is KM20L2 colon.
Assay [4] deals with SF-539 CNS.
For assay [5], the system named is SR leukemia.
For assay [6], the system named is NCI-H522 lung.
For assay [7], the system named is 786-0 renal.
Assay [8] deals with RXF 393 renal.

On to `CN(C)C(=S)/N=c1\ssc(=S)n1C`, for which the TGI in assay [1], in assay [2], in assay [3], in assay [4], in assay [5] and in assay [6] was more than 100 µM throughout. Also, the TGI in assay [7] and in assay [8] was more than 100 µM throughout.
As to `COC(=O)C(=O)C(CC(=O)Nc1ccc(C)cc1)C(=O)OC` (stereo not given), the TGI in assay [1], in assay [2], in assay [3], in assay [4], in assay [5] and in assay [6] was more than 100 µM throughout. Also, the TGI in assay [7] and in assay [8] was more than 100 µM throughout.
On to `COC(=O)c1cc(=O)nc2cc3cccccc3n12`, for which the TGI in assay [1], in assay [2], in assay [3], in assay [4], in assay [5] and in assay [6] was more than 100 µM in each case. For the same molecule, the TGI in assay [7] and in assay [8] was more than 100 µM throughout.
`CCOc1ccc(N=C(NC(=O)c2ccccc2)SC)cc1`: the TGI in assay [1], in assay [2], in assay [3], in assay [4], in assay [5] and in assay [7] was more than 100 µM in each case. In addition, in assay [8], the TGI is more than 100 µM.
Turning to `CC1(C)OC(=S)N(c2ccccc2)C12C=Cc1cc3ccccc3nc1S2` (stereo not given), the TGI is more than 100 µM in assay [1]; more than 100 µM in assay [2]; more than 100 µM in assay [3]; more than 100 µM in assay [4]; 80.1 µM in assay [5]; more than 100 µM in assay [6]. The TGI in assay [7] and in assay [8] was more than 100 µM throughout.
As to `O=c1c2c(-c3ccccc3)c3ccccc3nc2cnn1-c1ccccc1`, the TGI in assay [1], in assay [2], in assay [3], in assay [4], in assay [5] and in assay [6] was more than 100 µM throughout. The TGI in assay [7] and in assay [8] was more than 100 µM throughout.
For `CCC1=CCN(c2cc(C)ccn2)OC1c1ccccc1` (stereo not given), the TGI is more than 100 µM in assay [1]; more than 100 µM in assay [2]; more than 100 µM in assay [3]; more than 100 µM in assay [4]; 55.7 µM in assay [5]; 62.1 µM in assay [6]. For the same molecule, the TGI is more than 100 µM in assay [7] and 68 µM in assay [8].
In the case of `CC(=O)OC(C(=O)[O][Sn]([CH3])([CH3])[CH3])c1ccccc1` (stereo not given), the GI50 in assay [1] was more than 100 µM; in assay [2], more than 100 µM; in assay [3] it was more than 100 µM; in assay [4], more than 100 µM; in assay [5] it was more than 100 µM; in assay [6], 19.9 µM. For the same molecule, the GI50 in assay [7] was more than 100 µM. For the same molecule, the TGI in assay [1] was more than 100 µM; in assay [2] it was more than 100 µM; in assay [3], more than 100 µM; in assay [4], more than 100 µM; in assay [5], more than 100 µM; in assay [6] it was 62.6 µM. Besides, the values for the TGI in assay [7] and in assay [8] were more than 100 µM and 0.959 µM, respectively.
In the case of `COC(=O)C(C(=O)C(=O)Nc1ccc(C)cc1C)c1csc(-n2nc(-c3ccccc3)cc2-c2ccccc2)n1` (stereo not given), the TGI in assay [1], in assay [2], in assay [3], in assay [5], in assay [6] and in assay [7] was more than 100 µM each time. The molecule further returned a TGI in assay [8] of more than 100 µM.
For `C=C1C(=O)C23[C@H](O)C1CC[C@H]2[C@]12COC3(O)[C@@H](O)[C@@H]1C(C)(C)CC[C@@H]2O`, the TGI came out at 26.3 µM in assay [1]; 33.1 µM in assay [2]; 28.3 µM in assay [3]; 22.6 µM in assay [4]; 34.9 µM in assay [5]; 1.9 µM in assay [6]. Besides, the TGI in assay [7] amounted to 24 µM; in assay [8], 10.9 µM.
As to `COc1cc2c(c3c1c(=O)c1ccccc1n3C)C=CC(C)(C)O2`, the TGI is more than 100 µM in assay [1]; more than 100 µM in assay [2]; more than 100 µM in assay [3]; more than 100 µM in assay [4]; 39.5 µM in assay [5]; 50.7 µM in assay [6]. The TGI in assay [7] was more than 100 µM; in assay [8], 89 µM.
As to `CCOc1cccc2c1N[S@@](=O)S2`, the TGI in assay [1], in assay [2], in assay [3], in assay [4], in assay [5] and in assay [6] was more than 100 µM throughout. Further, the TGI in assay [7] is more than 100 µM.
Take `CCOc1ccc(N=C2NC(=O)C(CC(=O)Nc3ccccc3[N+](=O)[O-])S2)cc1` (stereo not given): the TGI in assay [1], in assay [2], in assay [3], in assay [4], in assay [5] and in assay [6] was more than 100 µM in each case. The TGI in assay [7] and in assay [8] was more than 100 µM in each case.
For the molecule `CC(=O)c1ccc(NC(=O)C(=O)C(C(=O)/C=C/c2ccccc2)C2OC(=O)c3ccccc32)cc1` (stereo not given), the TGI in assay [1], in assay [2], in assay [3], in assay [4], in assay [5] and in assay [6] was more than 100 µM throughout. Besides, the TGI in assay [7] and in assay [8] was more than 100 µM throughout.
With `COc1ccc(/C=C2\CCC(CCN(C)C)(C3=CCCC3)C2=O)cc1` (stereo not given), the TGI worked out at 28.4 µM in assay [1]; 51 µM in assay [2]; 28.3 µM in assay [3]; 30.8 µM in assay [4]; 88.5 µM in assay [5]; 31.2 µM in assay [6]. Besides, the results for the TGI in assay [7] and in assay [8] were 28.7 µM and 22.7 µM, respectively.
As to `CCOC(=O)C1Cc2ccc3c4c(ccc(c24)C1)CC(C(=O)OCC)C3`, the TGI in assay [1], in assay [2], in assay [3], in assay [4], in assay [5] and in assay [6] was more than 100 µM in each case. For the same molecule, the TGI in assay [7] and in assay [8] was more than 100 µM each time.
For `COc1ccc(/C=C(\NC(=O)c2ccccc2)c2nc3ccccc3[nH]2)cc1OC`, the TGI in assay [1], in assay [2], in assay [3], in assay [4], in assay [5] and in assay [6] was more than 100 µM in each case. Moreover, the TGI in assay [7] and in assay [8] was more than 100 µM each time.
